Measured values: paper PMC9911797, “Novel TLR7/8 agonists promote activation of HIV-1 latent reservoirs and human T and NK cells” (Frontiers in Microbiology, 2023)
pEC50: −log10 of the molar value.

Legend:
hTLR7 = biological target: T1, hTLR7 (Homo sapiens, UniProt Q9NYK1); test: HEK-Blue hTLR7 SEAP reporter assay; format: cell-based; details: HEK-Blue hTLR7 cells, SEAP in supernatant
T1 construct: host or cells: HEK-Blue hTLR7 (HEK293-derived)
T1 sequence (Q9NYK1 27-1049): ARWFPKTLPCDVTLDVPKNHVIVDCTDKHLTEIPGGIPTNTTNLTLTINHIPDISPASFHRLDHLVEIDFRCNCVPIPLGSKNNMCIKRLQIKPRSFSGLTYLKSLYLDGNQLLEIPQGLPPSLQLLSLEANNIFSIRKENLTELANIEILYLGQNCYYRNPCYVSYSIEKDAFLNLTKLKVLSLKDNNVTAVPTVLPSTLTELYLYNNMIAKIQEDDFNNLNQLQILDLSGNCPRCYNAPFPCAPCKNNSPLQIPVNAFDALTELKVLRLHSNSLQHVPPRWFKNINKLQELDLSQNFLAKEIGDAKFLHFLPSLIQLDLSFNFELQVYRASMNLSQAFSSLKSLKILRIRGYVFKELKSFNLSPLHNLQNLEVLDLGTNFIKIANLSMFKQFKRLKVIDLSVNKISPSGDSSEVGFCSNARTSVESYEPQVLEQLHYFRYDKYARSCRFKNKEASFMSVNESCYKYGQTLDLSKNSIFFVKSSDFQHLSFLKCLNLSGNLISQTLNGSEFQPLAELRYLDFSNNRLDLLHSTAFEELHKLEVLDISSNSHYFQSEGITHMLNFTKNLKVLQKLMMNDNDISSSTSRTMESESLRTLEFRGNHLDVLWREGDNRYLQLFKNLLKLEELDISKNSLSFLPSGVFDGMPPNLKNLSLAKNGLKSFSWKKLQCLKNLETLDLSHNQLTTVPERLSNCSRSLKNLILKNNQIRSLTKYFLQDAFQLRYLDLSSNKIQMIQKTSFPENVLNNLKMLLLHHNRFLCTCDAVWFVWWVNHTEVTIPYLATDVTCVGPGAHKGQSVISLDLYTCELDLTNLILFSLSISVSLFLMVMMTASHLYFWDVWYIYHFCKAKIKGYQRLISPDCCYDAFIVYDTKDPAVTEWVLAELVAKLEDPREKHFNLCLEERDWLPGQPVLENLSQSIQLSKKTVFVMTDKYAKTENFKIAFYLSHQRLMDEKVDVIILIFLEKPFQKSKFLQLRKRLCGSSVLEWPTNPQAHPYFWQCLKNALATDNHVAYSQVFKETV
Experimental: (§1) Starting with the lead compound, 76 pyrido [3,2-d] pyrimidine derivatives were synthesized and optimized through structural modification from the deep hydrophobic region to the solvent-exposed region. Seventy-six compounds were evaluated for their in vitro activity using HEK-Blue hTLR7 or hTLR8 reporter cells, stably expressing the human TLR7 or TLR8 and an NF-κB/AP1-inducible SEAP (secreted embryonic alkaline phosphatase reporter gene).
(§2) Add 20 μl various concentrations of TLR agonists (10 dilutions) and in a 96-well plate. Then HEK-Blue hTLR7 and hTLR8 cells were suspended to 4 × 10^5 cells/ml in HEK-Blue Detection (InvivoGen) medium and added 180 μl per well. The plates were incubated at 37°C in 5% CO2 for 12 ~ 16 h. Stimulation with a hTLR7or hTLR8 ligand activates NF-κB to induce the production of secreted embryonic alkaline phosphatase (SEAP) in the culture supernatant. SEAP could be measured at OD630nm on an ELISA plate reader.

hTLR8 = biological target: T2, hTLR8 (Homo sapiens, UniProt Q9NR97); test: HEK-Blue hTLR8 SEAP reporter assay; format: cell-based; details: HEK-Blue hTLR8 cells, SEAP in supernatant
T2 construct: host or cells: HEK-Blue hTLR8 (HEK293-derived)
T2 sequence (Q9NR97 27-1041): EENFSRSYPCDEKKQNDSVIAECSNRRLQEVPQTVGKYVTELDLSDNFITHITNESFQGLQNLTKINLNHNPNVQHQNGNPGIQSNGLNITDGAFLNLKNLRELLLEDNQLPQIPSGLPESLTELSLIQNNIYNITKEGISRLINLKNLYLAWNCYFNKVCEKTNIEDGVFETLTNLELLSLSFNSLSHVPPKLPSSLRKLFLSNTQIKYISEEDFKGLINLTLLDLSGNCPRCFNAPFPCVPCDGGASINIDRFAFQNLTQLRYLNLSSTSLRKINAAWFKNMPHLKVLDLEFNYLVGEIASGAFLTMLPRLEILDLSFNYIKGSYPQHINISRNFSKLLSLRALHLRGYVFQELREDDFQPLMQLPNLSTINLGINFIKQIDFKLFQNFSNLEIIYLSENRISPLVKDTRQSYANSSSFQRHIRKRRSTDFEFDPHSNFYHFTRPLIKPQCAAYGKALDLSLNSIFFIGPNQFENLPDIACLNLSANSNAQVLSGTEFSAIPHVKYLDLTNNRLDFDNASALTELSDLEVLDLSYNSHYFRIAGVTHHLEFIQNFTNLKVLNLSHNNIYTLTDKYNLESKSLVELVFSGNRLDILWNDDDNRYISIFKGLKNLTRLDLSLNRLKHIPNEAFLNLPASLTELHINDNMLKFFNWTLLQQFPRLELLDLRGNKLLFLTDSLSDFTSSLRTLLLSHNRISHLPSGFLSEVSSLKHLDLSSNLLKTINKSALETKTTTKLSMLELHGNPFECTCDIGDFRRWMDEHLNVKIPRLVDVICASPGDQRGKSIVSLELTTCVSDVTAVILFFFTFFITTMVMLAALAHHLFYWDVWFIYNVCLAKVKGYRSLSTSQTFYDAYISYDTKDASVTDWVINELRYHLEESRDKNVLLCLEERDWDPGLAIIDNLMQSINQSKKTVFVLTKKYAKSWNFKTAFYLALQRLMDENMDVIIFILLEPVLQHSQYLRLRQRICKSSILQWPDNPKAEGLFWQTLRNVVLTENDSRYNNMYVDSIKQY
Experimental: as §1, §2

[1] = test system: PBMCs from HIV-1 well-suppressed patients; test: Latent HIV-1 activation in PBMCs of well-suppressed patients (HIV-1 RNA copies in supernatant, RT-qPCR); format: cell-based, human; details: for HIV-1 RNA copies in the supernatant and TNF-α concentration: PBMCs from seven well-suppressed patients, IgG1-control antibody vs anti-TNF-α; for HIV-1 RNA copies in the supernatant: patient PBMCs (n = 6), 96 h at 37°C
Description: To study the potential of novel TLR7/8 in activating latent HIV-1 reservoir, TLR7/8 dual agonists D018 and C142 and TLR8-specific agonist B-130a were mixed with PBMCs from six well-suppressed patients whose viral load in the plasma was less than 50 copies/ml, and CD4 counts were more than […] for more than 6 years.
TLR7/8 agonists activated PBMCs from seven well-suppressed patients with the addition of anti-TNF-α monoclonal antibody or IgG1-control monoclonal antibody, respectively. D018, B-130a, and the positive control PMA + ION increased the levels of HIV-1 RNA copies in the supernatant and the concentration of TNF-α concomitantly.
To measure the HIV viral load, viral RNA from supernatants was extracted by MagaBio Plus Viral DNA / RNA Purification Kit (BIOER). The reverse-transcription and analysis of RNA copies were performed using the HIV-1 Real-time PCR detection kit (BIOER).

PBMCs = test: Inflammatory cytokine release from PBMCs (Legend-plex); format: cell-based, human; details: PBMC culture supernatant 48 h after stimulation
Experimental: Then, a total of 13 human inflammatory cytokines and chemokines (IL-1β, IFN-α2, IFN-γ, TNF-α, CCL2, IL-6, CXCL8, IL-10, IL-12p70, IL-17A, IL-18, IL-23, and IL-33) were measured in the culture supernatant 48 h after stimulation and compared with two healthy donors. Only 8 out of 13 became detectable and largely fell into the proinflammatory cytokines (IL-1β, IL-6, IL-18, IL-23, and TNF-α), Th1-and Th2-type cytokines (IL-10 and IFN-γ), and type I (IFN-α2) and type II (IFN-γ) interferons (Figures 2B–I).
The supernatants from PBMCs culture were collected and stored at-20°C until analysis. For the Multi-cytokines assay, the Legend-plex Human Inflammation Panel 1 kit (Biolegend) was used according to the manual. Thirteen human inflammatory cytokines/chemokines were measured, including IL-1β, IFN-α2, IFN-γ, TNF-α, MCP-1 (CCL2), IL-6, IL-8 (CXCL8), IL-10, IL-12p70, IL-17A, IL-18, IL-23, and IL-33.

NF-κB p65 in U1 cells = test: Nuclear phospho-p65-S536 in U1 cells (western blot); details: 1 μM, 30 min, 37°C
Experimental: For measuring NF-kB p65 and phosphor-p65 S536, 5 × 10^6 U1 cells were stimulated by 1 μM TLR7/8 agonists D018 (7/8), B-130a (8), GS9620 (7), and DMSO (negative control) for 30 min. Nuclear proteins were extracted by NE-PER Nuclear and Cytoplasmic Extraction Reagents (Pierce) and measured the concentration using BCA protein measure kit (Thermo).
Equal amounts of extracts were loaded on the 10% polyacrylamide gel SDS-PAGE. Then proteins were electro-transferred to nitrocellulose membranes 300 mA for 90 min and incubated with blocking buffer (5% nonfat dry milk and 0.1% Tween 20 in TBS) for 1 h at room temperature. NF-kB p65, phosphorylate p65-s529, and PCNA (as the control of nuclear protein) were separately detected by NF-κB p65 Mouse mAb (CST), Phospho-NF-κB p65 Ser536 Rabbit mAb (CST) and PCNA Rabbit mAb (CST) in blocking buffer overnight at 4°C. After washing 5 times in TBST (1 × TBS + 0.1% Tween), the membranes were incubated with anti-mouse IgG (H + L) HRP (Promega) and anti-rabbit IgG (H + L) HRP (Promega) for 1 h at room temperature. After washing 5 times in TBST, membranes were incubated with ECL detection reagents (Bio-red) and then developed in Bio-red imager.

[2] = test system: J-LAT cells co-cultured with MDDCs; test: J-LAT and MDDC co-culture assay (GFP+ cells and TNF-α); details: 1 μM, 48 h
[3] = test system: U1 monocytic cell line (latent HIV-1); test: HIV-1 p24 production in latently infected U1 cells (ELISA); details: 1 μM, TLR8- or MyD88-shRNA U1 vs sham-knockdown
HIV-1 = test system: HIV-1; parameters: method as in SenGupta et al., 2021; details: patients treated with oral GS9620, phase 1b, placebo 4.1 weeks; ref SenGupta et al., 2021; cited from earlier work
[4] = test system: J-LAT CD4 T cell line (latent HIV-1); test: J-LAT activation by supernatant of agonist-stimulated healthy donor PBMCs (GFP+ cells, FACS); details: 48 h, highest concentration 16 μM
[5] = test system: J-LAT CD4 T cell line (latent HIV-1); test: Direct stimulation of J-LAT cells (GFP-positive cells)

Compound	pEC50 (hTLR7)	pEC50 (hTLR8)	other results
COCCNc1nc(N)nc2ccc(Cc3ccc(CN(C)C)cc3)nc12 [199-1]	6.93	8.01	–
CCCCCc1cc(Cc2ccc(CN(C)C)cc2)c(C)nc1N [B-130a]	< 5.00	7.26	HIV-1 RNA copies in the supernatant and TNF-α concentration [1]: increased; HIV-1 RNA copies in the supernatant [1]: activated detectable levels of HIV-1 RNA copies; release of inflammatory cytokines (PBMCs): comparable potency but were invariably higher than TLR7-specific GS9620; nuclear phos-p65-S536 (NF-κB p65 in U1 cells): significant increase; GFP+ J-LAT cells and soluble TNF-α in MDDC co-culture [2]: marked increase; p24 production after TLR8 or MyD88 knockdown [3]: essentially abolished the p24 production
CCCCCc1cc(Cc2ccc(CN3CCCC3)cc2)c(C)nc1N [B-130b]	< 5.00	7.17	–
CCCCNc1nc(N)nc2ccc(Cc3ccc(CN4CCCC4)cc3)nc12 [C008]	7.00	7.76	–
CCCCNc1nc(N)nc2ccc(Cc3ccc(CN(C)C)cc3OC)nc12 [C142]	7.70	7.36	HIV-1 RNA copies in the supernatant [1]: activated detectable levels of HIV-1 RNA copies; release of inflammatory cytokines (PBMCs): either equivalent (IL-6, IL-10, IL-23, and IFN-γ) or higher (IL-1β, IL-18, and TNF-α) than the commercially available R848
CCCCNc1nc(N)nc2ccc(C(C)c3ccc(CN(C)C)cc3)nc12 (stereo not shown) [C163]	5.78	6.75	–
CCCCOc1nc(N)c2c(n1)N(Cc1cccc(CN3CCCC3)c1)CC(=O)N2 [GS9620, reference compound]	6.45	< 5.00	HIV-1 RNA copies in the supernatant and TNF-α concentration [1]: low detectable levels; viral rebound time (HIV-1): 5.1 weeks; GFP+ J-LAT cells and soluble TNF-α in MDDC co-culture [2]: no detectable levels; GFP-positive J-LAT cells, PBMC supernatant [4]: did not show any detectable effect
CCCCNc1nc(N)nc2ccc(Cl)nc12 [LB06]	5.59	5.70	–
CCCN(CCC)C(=O)C1=Cc2ccc(-c3ccc(C(=O)N4CCCC4)cc3)cc2N=C(N)C1 [VTX-2337, reference compound]	< 5.00	6.82	release of inflammatory cytokines (PBMCs): comparable potency but were invariably higher than TLR7-specific GS9620
CCCCNc1nc(N)nc2ccc(Cc3ccc(CN4CCOCC4)cc3)nc12 [WA86]	6.93	7.29	–
CCCCCc1cc2nc(Cc3ccc(CN(C)C)cc3)ccc2nc1N [WA175]	< 5.00	6.71	–
IFN-α	–	–	GFP-positive J-LAT cells, direct stimulation [5]: failed to activate J-LAT cells
TNF-α	–	–	GFP-positive J-LAT cells, direct stimulation [5]: could activate GFP expression
